Assay results published in ChEMBL document CHEMBL1201862, “PubChem BioAssay data set” (2004).
Calls of active or inactive are those of the source.

Tests used:
[1] = microbe, parasite or virus in culture; format: functional; settings: Mycobacterium tuberculosis
[2] = M. tuberculosis growth inhibition, HTS (AID 449762); format: functional
[3] = target: T1, Orexin/Hypocretin receptor type 1 (Homo sapiens, UniProt O43613); assay: (§1) Fluorescence-based cell-based high throughput dose response assay for antagonists of the orexin 1 receptor (OX1R; HCRTR1). [Related pubchem assays (depositor defined):AID434989, AID435008, AID463079, AID485270, AID492963, AID492964, AID492965, AID493232, AID504717, AID504718]; format: functional
T1 sequence (O43613 whole entry): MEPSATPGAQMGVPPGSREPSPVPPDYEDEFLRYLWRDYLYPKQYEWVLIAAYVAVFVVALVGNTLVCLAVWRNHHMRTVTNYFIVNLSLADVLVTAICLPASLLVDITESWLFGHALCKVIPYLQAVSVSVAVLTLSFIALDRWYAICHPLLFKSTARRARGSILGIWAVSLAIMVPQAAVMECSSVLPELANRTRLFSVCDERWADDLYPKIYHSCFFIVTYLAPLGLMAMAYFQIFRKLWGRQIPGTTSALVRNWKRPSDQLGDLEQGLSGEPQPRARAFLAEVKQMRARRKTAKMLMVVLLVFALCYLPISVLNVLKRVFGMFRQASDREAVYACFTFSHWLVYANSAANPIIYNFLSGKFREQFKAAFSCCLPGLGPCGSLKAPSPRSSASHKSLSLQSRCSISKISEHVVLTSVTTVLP

[4] = (§2) Counterscreen for antagonists of the orexin 1 receptor (OX1R; HCRTR1): Fluorescence-based cell-based high throughput dose response assay to identify antagonists of the parental CHO cell line. [Related pubchem assays (depositor defined):AID434989, AID435008, AID463079, AID485270, AID492963, AID492964, AID492965, AID493232, AID504699, AID504701]; format: functional
Orexin receptor type 2 [5] = target: T2, Orexin receptor type 2 (Homo sapiens, UniProt O43614); assay: Counterscreen assay for antagonists of the orexin 1 receptor (OX1R; HCRTR1): Fluorescence-based cell-based dose response assay for antagonists of the orexin 2 receptor (OX2R; HCRTR2), run by assay provider.; format: functional
T2 sequence (O43614 whole entry): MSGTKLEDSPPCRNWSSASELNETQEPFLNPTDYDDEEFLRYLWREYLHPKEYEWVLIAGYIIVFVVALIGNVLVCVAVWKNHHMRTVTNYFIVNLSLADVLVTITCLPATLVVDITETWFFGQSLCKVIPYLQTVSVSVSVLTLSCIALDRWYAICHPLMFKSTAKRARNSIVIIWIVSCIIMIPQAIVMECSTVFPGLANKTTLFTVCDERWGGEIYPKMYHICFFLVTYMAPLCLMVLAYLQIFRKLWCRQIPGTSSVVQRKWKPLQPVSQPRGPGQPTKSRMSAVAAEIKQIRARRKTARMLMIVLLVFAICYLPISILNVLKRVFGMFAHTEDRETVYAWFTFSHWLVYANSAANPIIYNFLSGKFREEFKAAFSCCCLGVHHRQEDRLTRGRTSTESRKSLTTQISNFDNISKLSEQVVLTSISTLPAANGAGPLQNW

[6] = target: T1, Orexin/Hypocretin receptor type 1; assay: as §1, with “Homogeneous Time Resolved Fluorescence (HTRF)-based” for “Fluorescence-based”; format: functional
CHO-K1 = assay: as §2, with “Homogeneous time resolved fluorescence (HTRF)-based” for “Fluorescence-based”, “cell-based” for “cell-based high throughput”, “CHO-K1” for “CHO”; format: functional; settings: Cricetulus griseus;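 further: potency for inhibition of ATP-stimulated IP1 production as antagonists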
[7] = target: Voltage-gated inwardly rectifying potassium channel KCNH2 (Homo sapiens, UniProt Q12809); assay: hERG protection from proarrhythmic block, potency, dose response, cell-based, thallium flux (AID 2121); format: ADME
Orexin receptor type 2 [8] = target: T2, Orexin receptor type 2; assay: Counterscreen assay for antagonists of the orexin 1 receptor (OX1R; HCRTR1): Homogeneous Time Resolved Fluorescence (HTRF)-based cell-based dose response assay for antagonists of the orexin 2 receptor (OX2R; HCRTR2), run by assay provider.; format: functional
[9] = target: T3, Mannose-6-phosphate isomerase (Homo sapiens, UniProt P34949); assay: human PMI inhibitors, high substrate, primary screen, biochemical, fluorescence intensity, high mannose 6-phosphate (AID 1220)
T3 sequence (P34949 whole entry): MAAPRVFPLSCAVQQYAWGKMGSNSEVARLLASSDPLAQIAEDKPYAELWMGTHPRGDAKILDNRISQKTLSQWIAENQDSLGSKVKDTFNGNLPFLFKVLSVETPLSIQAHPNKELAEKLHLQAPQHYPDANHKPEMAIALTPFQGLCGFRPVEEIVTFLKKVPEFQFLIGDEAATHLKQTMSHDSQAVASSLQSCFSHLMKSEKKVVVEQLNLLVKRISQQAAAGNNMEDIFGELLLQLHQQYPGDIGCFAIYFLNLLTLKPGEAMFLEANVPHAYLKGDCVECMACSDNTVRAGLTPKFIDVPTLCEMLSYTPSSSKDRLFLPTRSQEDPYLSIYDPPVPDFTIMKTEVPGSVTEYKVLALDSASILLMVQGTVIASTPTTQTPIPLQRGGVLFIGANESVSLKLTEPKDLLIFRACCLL

[10] = inhibitors of Vif binding to APOBEC3G peptide, primary screen, biochemical, TR-FRET, GST-Vif 1-94, biotin-A3G peptide, dose response retest (AID 1117319); format: functional;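 further: TR-FRET signal of purified GST-Vif binding a biotinylated A3G peptide; inhibitors lower the FRET signal by blocking Vif and A3G binding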
Large T antigen = Large T antigen (Simian virus 40, UniProt P03070); format: functional, Betapolyomavirus macacae;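 further: Confirmatory-stage PubChem screen for compounds that inhibit SV40 T antigen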
[11] = Vero cell cytotoxicity, dose response, cytotoxicity control for Vif-APOBEC3G degradation inhibitor project, Vero cells (AID 1117358); format: functional; settings: Human immunodeficiency virus 1, Vero
[12] = target: T3, Mannose-6-phosphate isomerase; assay: inhibitors of human PMI, primary screen, biochemical, fluorescence intensity, coupled assay (AID 1209)
Danio rerio = assay: In Vivo Angiogenesis Dose-Response Confirmation. [Related pubchem assays: 732 (Assay preceding this confirmatory assay.)]; format: functional, organism-based
Ephrin type-A receptor 4 = Ephrin type-A receptor 4 (Mus musculus, UniProt Q03137); assay: inhibitors of EphA4 binding to KYL peptide, primary screen, biochemical, colorimetric, mouse EphA4 (AID 689); format: functional
[13] = A High Throughput Confirmatory Assay used to Identify Novel Compounds that Inhibit Mycobacterium Tuberculosis in the absence of Glycerol.; format: functional

Chain of Voltage-gated inwardly rectifying potassium channel KCNH2 (Q12809 whole entry): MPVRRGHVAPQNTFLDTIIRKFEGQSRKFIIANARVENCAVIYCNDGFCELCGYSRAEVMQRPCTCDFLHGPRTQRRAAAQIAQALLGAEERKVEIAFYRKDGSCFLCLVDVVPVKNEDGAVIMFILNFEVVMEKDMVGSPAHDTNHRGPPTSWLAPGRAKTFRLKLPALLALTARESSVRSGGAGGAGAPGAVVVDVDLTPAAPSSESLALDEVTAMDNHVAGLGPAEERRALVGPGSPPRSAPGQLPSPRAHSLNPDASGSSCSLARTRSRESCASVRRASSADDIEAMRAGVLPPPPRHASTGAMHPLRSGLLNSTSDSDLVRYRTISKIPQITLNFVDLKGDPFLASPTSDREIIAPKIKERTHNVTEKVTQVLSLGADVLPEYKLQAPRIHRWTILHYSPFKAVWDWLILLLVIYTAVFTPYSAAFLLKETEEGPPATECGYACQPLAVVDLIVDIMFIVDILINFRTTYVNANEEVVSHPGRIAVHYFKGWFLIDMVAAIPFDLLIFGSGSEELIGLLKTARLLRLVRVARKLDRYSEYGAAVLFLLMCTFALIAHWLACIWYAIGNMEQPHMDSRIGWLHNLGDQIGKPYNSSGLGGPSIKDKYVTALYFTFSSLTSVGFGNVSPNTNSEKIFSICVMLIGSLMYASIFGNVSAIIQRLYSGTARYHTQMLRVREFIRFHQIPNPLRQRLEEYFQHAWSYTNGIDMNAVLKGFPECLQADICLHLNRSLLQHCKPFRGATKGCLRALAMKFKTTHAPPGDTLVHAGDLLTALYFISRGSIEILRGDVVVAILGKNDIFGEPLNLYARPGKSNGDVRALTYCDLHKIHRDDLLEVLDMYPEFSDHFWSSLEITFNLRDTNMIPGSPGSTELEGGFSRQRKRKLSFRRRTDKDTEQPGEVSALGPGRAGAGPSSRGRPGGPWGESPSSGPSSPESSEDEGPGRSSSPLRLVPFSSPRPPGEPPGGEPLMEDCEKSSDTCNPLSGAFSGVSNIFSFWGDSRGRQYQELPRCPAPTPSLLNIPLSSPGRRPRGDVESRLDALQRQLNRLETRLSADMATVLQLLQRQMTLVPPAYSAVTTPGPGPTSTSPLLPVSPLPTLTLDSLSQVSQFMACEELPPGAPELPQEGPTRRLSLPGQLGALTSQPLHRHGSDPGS
Chain of Large T antigen (P03070 whole entry): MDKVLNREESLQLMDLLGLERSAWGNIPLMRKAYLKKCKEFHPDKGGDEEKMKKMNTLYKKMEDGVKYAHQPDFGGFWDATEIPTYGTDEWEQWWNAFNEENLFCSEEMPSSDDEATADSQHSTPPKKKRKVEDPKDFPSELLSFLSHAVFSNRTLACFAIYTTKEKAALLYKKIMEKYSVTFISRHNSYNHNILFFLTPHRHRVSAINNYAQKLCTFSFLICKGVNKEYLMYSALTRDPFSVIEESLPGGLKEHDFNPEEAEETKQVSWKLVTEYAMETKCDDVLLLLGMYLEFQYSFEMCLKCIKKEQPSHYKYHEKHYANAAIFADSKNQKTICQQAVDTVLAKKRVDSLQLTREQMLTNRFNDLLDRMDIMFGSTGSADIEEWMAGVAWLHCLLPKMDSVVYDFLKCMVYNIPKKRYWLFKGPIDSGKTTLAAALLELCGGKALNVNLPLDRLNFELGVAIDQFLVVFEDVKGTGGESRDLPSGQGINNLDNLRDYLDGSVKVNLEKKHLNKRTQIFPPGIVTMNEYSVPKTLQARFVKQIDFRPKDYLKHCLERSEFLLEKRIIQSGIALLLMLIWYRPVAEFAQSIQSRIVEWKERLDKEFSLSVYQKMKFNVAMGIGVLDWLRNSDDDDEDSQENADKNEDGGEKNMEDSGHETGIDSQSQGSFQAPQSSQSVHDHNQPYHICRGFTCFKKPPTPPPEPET
Chain of Ephrin type-A receptor 4 (Q03137 whole entry): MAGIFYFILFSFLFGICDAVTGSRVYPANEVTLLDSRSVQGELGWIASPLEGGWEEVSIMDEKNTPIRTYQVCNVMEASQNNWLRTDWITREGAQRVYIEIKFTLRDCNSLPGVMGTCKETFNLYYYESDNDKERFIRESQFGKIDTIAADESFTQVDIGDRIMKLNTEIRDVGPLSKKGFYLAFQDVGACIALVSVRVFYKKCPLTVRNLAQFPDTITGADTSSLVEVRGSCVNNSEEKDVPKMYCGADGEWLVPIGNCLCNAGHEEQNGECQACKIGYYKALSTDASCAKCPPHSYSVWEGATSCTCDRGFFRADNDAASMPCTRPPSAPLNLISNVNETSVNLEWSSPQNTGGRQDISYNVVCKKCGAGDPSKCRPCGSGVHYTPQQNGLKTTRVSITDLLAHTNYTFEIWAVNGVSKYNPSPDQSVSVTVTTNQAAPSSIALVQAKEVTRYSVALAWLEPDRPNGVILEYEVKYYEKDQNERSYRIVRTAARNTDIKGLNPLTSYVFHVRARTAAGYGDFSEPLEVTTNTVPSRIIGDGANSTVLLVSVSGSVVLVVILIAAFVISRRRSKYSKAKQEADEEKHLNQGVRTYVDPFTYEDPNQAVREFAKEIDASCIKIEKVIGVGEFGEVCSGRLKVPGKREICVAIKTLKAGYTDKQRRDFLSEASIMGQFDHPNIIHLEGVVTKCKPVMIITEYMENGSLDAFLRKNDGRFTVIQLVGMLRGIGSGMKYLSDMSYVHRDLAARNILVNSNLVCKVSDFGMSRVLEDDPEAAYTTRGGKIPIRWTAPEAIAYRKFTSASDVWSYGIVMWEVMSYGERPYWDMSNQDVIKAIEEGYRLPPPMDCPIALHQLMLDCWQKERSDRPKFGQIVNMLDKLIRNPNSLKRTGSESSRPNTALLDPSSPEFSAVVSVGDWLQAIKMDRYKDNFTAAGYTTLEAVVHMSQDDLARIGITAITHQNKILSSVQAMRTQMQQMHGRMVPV

Which CC50 [1] does the source give for `O=C(N/N=C/c1cn(-c2ccccc2)nc1-c1cccs1)c1ccc(Cl)cc1` here?
The CC50 was 23.1 µM (active).

What about the IC50 [2] of the same molecule?
Its IC50 is > 100 µM (active).

For `O=C(NC(=S)Nc1nc(-c2ccccc2)cs1)c1ccco1`, which IC50 [3] is on record?
The IC50 was > 49.7 µM (inactive).

What about the IC50 [4] of the same molecule?
Its IC50 is > 49.7 µM (inactive).

What about the IC50 (Orexin receptor type 2 [5]) of the same molecule?
Its IC50 is > 88.8 µM (inactive).

What about the IC50 [6] of the same molecule?
The IC50 was 7.37 µM (active).

What about the IC50 (CHO-K1) of the same molecule?
Its IC50 is > 66.2 µM (inactive).

What about the EC50 [7] of the same molecule?
The EC50 was 0.15 µM (active).

And the IC50 (Orexin receptor type 2 [8])?
Its IC50 is > 50 µM (inactive).

For `Oc1ccc(/C=N/NP(=S)(c2ccccc2)c2ccccc2)cc1O`, which IC50 [9] is on record?
Its IC50 is > 50 µM (not active).

And the IC50 [10]?
The IC50 was > 100 µM (active).

And the IC50 (Large T antigen)?
The IC50 was 54.9 µM (active).

What about the CC50 [11] of the same molecule?
The CC50 was > 40 µM (active).

And the IC50 [12]?
Its IC50 is > 50 µM (not active).

With `O=C1Nc2ccc(F)cc2/C1=C1/Nc2ccc(Br)cc2/C1=N\O` as the molecule, how does the IC50 (Danio rerio) read?
The IC50 was 0.29 µM (not active).

Which IC50 (Ephrin type-A receptor 4) does the source give for `Cc1ccc(C)c(OCc2nnc(N)s2)c1` here?
The IC50 was > 100 µM (not active).

Which results are given for `C#CCOc1ccc2c(c1)c(C(C)=O)c(C)n2Cc1ccccc1`?
CC50 [1]: > 40 µM (active); IC50 [13]: > 100 µM (active)
